system: Phakopsora pachyrhizi; assay: Phakopsora pachyrhizi Test in Soybean (preventive spray); format: in vivo; conditions: preventive spray on Soybean plants, inoculated one day after treatment, disease severity vs untreated control
Description: Example 7: Phakopsora pachyrhizi Test in Soybean Compounds were dissolved in 2% dimethyl sulfoxide/acetone and then mixed with water containing an emulsifier to a calibrated spray volume of 50 mL. This 50 mL spray solution was poured into spray bottles for further applications. To test the preventive activity of compounds, healthy young Soybean plants, raised in the greenhouse, were sprayed with the active compound preparation at the stated application rates inside the spray cabinets using hollow cone nozzles. One day after treatment, the plants were inoculated with a spore suspension containing 2×10^5Phakopsora pachyrhizi conidia. The inoculated plants were then kept in a greenhouse chamber at 22-24° C. temperature and 80-90% relative humidity for disease expression. A visual assessment of the compound's performance was carried out by rating the disease severity (0-100% scale) on treated plants 3, 7, 10 and 15 days after application. Efficacy (% control) of the compounds was calculated by comparing the disease rating in the treatment with the one of the untreated control. The sprayed plants were also assessed for plant compatibility by recording symptoms like necrosis, chlorosis and stunting.

Row | SMILES | pest or weed control at 500 ppm [%]
1 | O=C(CS(=O)(=O)c1ccc(Cl)c(Cl)c1)c1ccc(-c2noc(C(F)(F)F)n2)cc1 [Compound 94, 2-((3,4-dichlorophenyl)sulfonyl)-1-(4-(5-(trifluoromethyl)-1,2,4-oxadiazol-3-yl)phenyl)ethan-1-one] | ≥ 70
2 | O=C(COc1cc(F)cc(Cl)c1)c1ccc(-c2noc(C(F)(F)F)n2)cc1 [Compound 42, 2-(3-chloro-5-fluorophenoxy)-1-(4-(5-(trifluoromethyl)-1,2,4-oxadiazol-3-yl)phenyl)ethan-1-one] | ≥ 70
3 | COc1ccccc1SCC(=O)c1ccc(-c2noc(C(F)(F)F)n2)cc1 [Compound 63, 2-((2-methoxyphenyl)thio)-1-(4-(5-(trifluoromethyl)-1,2,4-oxadiazol-3-yl)phenyl)ethan-1-one] | ≥ 70
4 | O=C(COc1cccc(C(F)(F)F)c1)c1ccc(-c2noc(C(F)(F)F)n2)cc1 [Compound 40, 1-(4-(5-(trifluoromethyl)-1,2,4-oxadiazol-3-yl)phenyl)-2-(3-(trifluoromethyl)phenoxy)ethan-1-one] | ≥ 70
5 | CC(c1ccccc1)[S+]([O-])CC(=O)c1ccc(-c2noc(C(F)(F)F)n2)cc1 (stereo not drawn) [Compound 82, 2-((1-phenylethyl)sulfinyl)-1-(4-(5-(trifluoromethyl)-1,2,4-oxadiazol-3-yl)phenyl)ethan-1-one] | ≥ 70
6 | O=C(COc1ccc(Br)c(F)c1)c1ccc(-c2noc(C(F)(F)F)n2)cc1 [Compound 12, 2-(4-bromo-3-fluorophenoxy)-1-(4-(5-(trifluoromethyl)-1,2,4-oxadiazol-3-yl)phenyl)ethan-1-one] | ≥ 70
7 | O=C(CNc1ccccc1F)c1ccc(-c2noc(C(F)(F)F)n2)cc1 [Compound 29, 2-((2-fluorophenyl)amino)-1-(4-(5-(trifluoromethyl)-1,2,4-oxadiazol-3-yl)phenyl)ethan-1-one] | ≥ 70
8 | O=C(CSc1cccc(Cl)c1)c1ccc(-c2noc(C(F)(F)F)n2)cc1 [Compound 54, 2-((3-chlorophenyl)thio)-1-(4-(5-(trifluoromethyl)-1,2,4-oxadiazol-3-yl)phenyl)ethan-1-one] | ≥ 70
9 | COc1ccc(SCC(=O)c2ccc(-c3noc(C(F)(F)F)n3)cc2)cc1 [Compound 23, 2-((4-methoxyphenyl)thio)-1-(4-(5-(trifluoromethyl)-1,2,4-oxadiazol-3-yl)phenyl)ethan-1-one] | ≥ 70
10 | O=C(CN1CCOCC1)c1ccc(-c2noc(C(F)(F)F)n2)cc1 [Compound 136, 2-morpholino-1-(4-(5-(trifluoromethyl)-1,2,4-oxadiazol-3-yl)phenyl)ethan-1-one] | ≥ 70
11 | O=C(CSc1c(Cl)cccc1Cl)c1ccc(-c2noc(C(F)(F)F)n2)cc1 [Compound 13, 2-((2,6-dichlorophenyl)thio)-1-(4-(5-(trifluoromethyl)-1,2,4-oxadiazol-3-yl)phenyl)ethan-1-one] | ≥ 70
12 | Cc1ccc(Cl)c(OCC(=O)c2ccc(-c3noc(C(F)(F)F)n3)cc2)c1 [Compound 33, 2-(2-chloro-5-methylphenoxy)-1-(4-(5-(trifluoromethyl)-1,2,4-oxadiazol-3-yl)phenyl)ethan-1-one] | ≥ 70
13 | Cc1ccc(SCC(=O)c2ccc(-c3noc(C(F)(F)F)n3)cc2)cc1 [Compound 22, 2-(p-tolylthio)-1-(4-(5-(trifluoromethyl)-1,2,4-oxadiazol-3-yl)phenyl)ethan-1-one] | ≥ 70
14 | O=C(CSc1nc2ccccc2o1)c1ccc(-c2noc(C(F)(F)F)n2)cc1 [Compound 25, 2-(benzo[d]oxazol-2-ylthio)-1-(4-(5-(trifluoromethyl)-1,2,4-oxadiazol-3-yl)phenyl)ethan-1-one] | ≥ 70
15 | O=C(COc1ccc(Cl)c(C(F)(F)F)c1)c1ccc(-c2noc(C(F)(F)F)n2)cc1 [Compound 9, 2-(4-chloro-3-(trifluoromethyl)phenoxy)-1-(4-(5-(trifluoromethyl)-1,2,4-oxadiazol-3-yl)phenyl)ethan-1-one] | ≥ 70
16 | O=C(CSc1ccccc1)c1ccc(-c2noc(C(F)(F)F)n2)cc1 [Compound 60, 2-(phenylthio)-1-(4-(5-(trifluoromethyl)-1,2,4-oxadiazol-3-yl)phenyl)ethan-1-one] | ≥ 70
17 | O=C(CNc1ccc(C(F)(F)F)cc1)c1ccc(-c2noc(C(F)(F)F)n2)cc1 [Compound 28, 1-(4-(5-(trifluoromethyl)-1,2,4-oxadiazol-3-yl)phenyl)-2-((4-(trifluoromethyl)phenyl)amino)ethan-1-one] | ≥ 70
18 | O=C(C[S+]([O-])c1ccccc1)c1ccc(-c2noc(C(F)(F)F)n2)cc1 (stereo not drawn) [Compound 84, 2-(phenylsulfinyl)-1-(4-(5-(trifluoromethyl)-1,2,4-oxadiazol-3-yl)phenyl)ethan-1-one] | ≥ 70
19 | Cc1cccc(OCC(=O)c2ccc(-c3noc(C(F)(F)F)n3)cc2)c1 [Compound 10, 2-(m-tolyloxy)-1-(4-(5-(trifluoromethyl)-1,2,4-oxadiazol-3-yl)phenyl)ethan-1-one] | ≥ 70
20 | Cn1ccc(OCC(=O)c2ccc(-c3noc(C(F)(F)F)n3)cc2)n1 [Compound 50, 2-((1-methyl-1H-pyrazol-3-yl)oxy)-1-(4-(5-(trifluoromethyl)-1,2,4-oxadiazol-3-yl)phenyl)ethan-1-one] | ≥ 70
21 | O=C(CSC1CCCC1)c1ccc(-c2noc(C(F)(F)F)n2)cc1 [Compound 24, 2-(cyclopentylthio)-1-(4-(5-(trifluoromethyl)-1,2,4-oxadiazol-3-yl)phenyl)ethan-1-one] | ≥ 70
22 | O=C(COc1cccc(F)c1)c1ccc(-c2noc(C(F)(F)F)n2)cc1 [Compound 3, 2-(3-fluorophenoxy)-1-(4-(5-(trifluoromethyl)-1,2,4-oxadiazol-3-yl)phenyl)ethan-1-one] | ≥ 70
23 | O=C(COc1ccnc(Cl)c1)c1ccc(-c2noc(C(F)(F)F)n2)cc1 [Compound 44, 2-((2-chloropyridin-4-yl)oxy)-1-(4-(5-(trifluoromethyl)-1,2,4-oxadiazol-3-yl)phenyl)ethan-1-one] | ≥ 70
24 | O=C(COc1cccnc1Cl)c1ccc(-c2noc(C(F)(F)F)n2)cc1 [Compound 46, 2-((2-chloropyridin-3-yl)oxy)-1-(4-(5-(trifluoromethyl)-1,2,4-oxadiazol-3-yl)phenyl)ethan-1-one] | ≥ 70
25 | O=C(COc1cccc(Cl)c1)c1ccc(-c2noc(C(F)(F)F)n2)cc1 [Compound 35, 2-(3-chlorophenoxy)-1-(4-(5-(trifluoromethyl)-1,2,4-oxadiazol-3-yl)phenyl)ethan-1-one] | ≥ 70
26 | Cc1ccc(C)c(OCC(=O)c2ccc(-c3noc(C(F)(F)F)n3)cc2)c1 [Compound 16, 2-(2,5-dimethylphenoxy)-1-(4-(5-(trifluoromethyl)-1,2,4-oxadiazol-3-yl)phenyl)ethan-1-one] | ≥ 70
27 | O=C(C[S+]([O-])c1ccccc1F)c1ccc(-c2noc(C(F)(F)F)n2)cc1 (stereo not drawn) [Compound 88, 2-((2-fluorophenyl)sulfinyl)-1-(4-(5-(trifluoromethyl)-1,2,4-oxadiazol-3-yl)phenyl)ethan-1-one] | ≥ 70
